Experimental data as given in ChEMBL document CHEMBL1124039, “Angiotensin-converting enzyme inhibitors. 2. Perhydroazepin-2-one derivatives” (J Med Chem, 1988).

Biological target: T1, Angiotensin-converting enzyme (Oryctolagus cuniculus, UniProt P12822)
T1 sequence (P12822 whole entry): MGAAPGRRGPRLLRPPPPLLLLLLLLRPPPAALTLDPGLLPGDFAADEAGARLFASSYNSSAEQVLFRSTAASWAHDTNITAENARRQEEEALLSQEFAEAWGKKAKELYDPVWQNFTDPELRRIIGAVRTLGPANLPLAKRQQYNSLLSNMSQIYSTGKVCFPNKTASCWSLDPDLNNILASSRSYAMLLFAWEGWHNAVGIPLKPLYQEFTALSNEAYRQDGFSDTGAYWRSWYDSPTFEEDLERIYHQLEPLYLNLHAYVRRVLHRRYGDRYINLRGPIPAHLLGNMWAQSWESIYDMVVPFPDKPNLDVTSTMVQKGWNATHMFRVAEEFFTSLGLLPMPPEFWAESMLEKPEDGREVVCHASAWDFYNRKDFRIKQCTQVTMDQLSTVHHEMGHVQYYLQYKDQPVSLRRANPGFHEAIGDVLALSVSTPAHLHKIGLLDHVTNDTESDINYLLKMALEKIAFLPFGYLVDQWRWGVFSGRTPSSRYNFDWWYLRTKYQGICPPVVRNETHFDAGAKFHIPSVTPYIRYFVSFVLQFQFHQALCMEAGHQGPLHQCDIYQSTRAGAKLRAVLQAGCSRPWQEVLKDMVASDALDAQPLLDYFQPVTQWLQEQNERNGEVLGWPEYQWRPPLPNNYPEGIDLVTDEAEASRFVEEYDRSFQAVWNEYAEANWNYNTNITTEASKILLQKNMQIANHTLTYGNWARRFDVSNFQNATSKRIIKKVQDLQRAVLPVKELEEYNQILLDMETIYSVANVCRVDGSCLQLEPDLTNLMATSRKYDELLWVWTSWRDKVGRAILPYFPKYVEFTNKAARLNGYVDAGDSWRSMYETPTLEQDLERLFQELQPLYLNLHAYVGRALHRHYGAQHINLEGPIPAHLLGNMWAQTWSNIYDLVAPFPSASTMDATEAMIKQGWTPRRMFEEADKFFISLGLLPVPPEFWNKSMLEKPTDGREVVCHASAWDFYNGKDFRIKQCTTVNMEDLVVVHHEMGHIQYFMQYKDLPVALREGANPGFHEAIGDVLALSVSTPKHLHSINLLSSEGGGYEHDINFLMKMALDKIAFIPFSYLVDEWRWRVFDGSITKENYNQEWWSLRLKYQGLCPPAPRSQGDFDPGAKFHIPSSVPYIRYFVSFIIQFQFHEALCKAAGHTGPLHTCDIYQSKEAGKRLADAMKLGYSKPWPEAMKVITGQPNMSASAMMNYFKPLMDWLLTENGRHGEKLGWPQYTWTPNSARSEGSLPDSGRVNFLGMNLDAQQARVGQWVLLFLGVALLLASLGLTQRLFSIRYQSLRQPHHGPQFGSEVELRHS
Assay: Concentration required for 50% inhibition of rabbit lung Angiotensin I converting enzyme with 5 mM hippuryl-histidyl-leucine as substrate

| IC50 [nM] | Structure (SMILES) |
| --- | --- |
| 16.2 | O=C(O)CN1C(=O)[C@@H](N[C@@H](CCc2ccccc2)C(=O)O)CCC[C@@H]1c1ccccc1 |
| 4.3 | O=C(O)CN1C[C@H](c2ccccc2)CC[C@H](N[C@@H](CCc2ccccc2)C(=O)O)C1=O |
| 3.6 | O=C(O)CN1C(=O)[C@@H](N[C@@H](CCc2ccccc2)C(=O)O)CCC[C@H]1c1ccccc1 |
| 3.1 | O=C(O)CN1C[C@@H](c2ccccc2)CC[C@H](N[C@@H](CCc2ccccc2)C(=O)O)C1=O |
